# Experimental data taken from ChEMBL document CHEMBL3885881, “DrugMatrix”.
# Organism: Rattus norvegicus
# Assay: DrugMatrix - Regimen: Daily Repeat
# Format: toxicity, organism-based, Sprague-Dawley
# Design: regimen Daily Repeat, gender Male, age 6-8 weeks
# Settings: in vivo, iv, vehicle 100 % SALINE; for URIC ACID / ALANINE AMINOTRANSFERASE / ALBUMIN / ALKALINE PHOSPHATASE / ASPARTATE AMINOTRANSFERASE / BLOOD UREA NITROGEN / CARBON DIOXIDE / CHLORIDE / CHOLESTEROL / CREATINE PHOSPHOKINASE / CREATININE / GLUCOSE / LACTATE DEHYDROGENASE / LIPASE / PHOSPHORUS / POTASSIUM / SODIUM / TOTAL BILIRUBIN / TOTAL PROTEIN: tissue Plasma; for ABSOLUTE BASOPHIL / ABSOLUTE EOSINOPHIL / ABSOLUTE LYMPHOCYTE / ABSOLUTE MONOCYTE / ABSOLUTE SEGMENTED NEUTROPHIL / BASOPHIL / EOSINOPHIL / ERYTHROCYTE COUNT / HEMATOCRIT / HEMOGLOBIN / LEUKOCYTE COUNT / LYMPHOCYTE / MEAN CORPUSCULAR HEMOGLOBIN / MEAN CORPUSCULAR HEMOGLOBIN CONCENTRATION / MEAN CORPUSCULAR VOLUME / MONOCYTE / NEUTROPHIL / NUCLEATED RED BLOOD CELLS / PLATELET COUNT: tissue Blood
# [1] = 2 mg/kg, 120 h, dose level Low, time 5 day
# [2] = 44 mg/kg, 72 h, dose level High, time 3 day
# [3] = 44 mg/kg, 120 h, dose level High, time 5 day
structure (smiles),measurement,setting,value
Cc1ccc(N(CC2=NCCN2)c2cccc(O)c2)cc1 [PHENTOLAMINE],URIC ACID,"2 mg/kg, 72 h, dose level Low, time 3 day",1.4 mg/dL
same,ABSOLUTE BASOPHIL,[1],0 CELLS/uL
same,ABSOLUTE EOSINOPHIL,[1],0 CELLS/uL
same,ABSOLUTE LYMPHOCYTE,[1],13096 CELLS/uL
same,ABSOLUTE MONOCYTE,[1],288 CELLS/uL
same,ABSOLUTE SEGMENTED NEUTROPHIL,[1],1016 CELLS/uL
same,BASOPHIL,[1],0%
same,EOSINOPHIL,[1],0%
same,ERYTHROCYTE COUNT,[1],6.03 x10E6/uL
same,HEMATOCRIT,[1],38.17%
same,HEMOGLOBIN,[1],14.2 G/DL
same,LEUKOCYTE COUNT,[1],14.4 x10E3/uL
same,LYMPHOCYTE,[1],91%
same,MEAN CORPUSCULAR HEMOGLOBIN,[1],23.53 pg
same,MEAN CORPUSCULAR HEMOGLOBIN CONCENTRATION,[1],37.2 G/DL
same,MEAN CORPUSCULAR VOLUME,[1],63.3 fL
same,MONOCYTE,[1],2%
same,NEUTROPHIL,[1],7%
same,NUCLEATED RED BLOOD CELLS,[1],0.67 /100WBC
same,PLATELET COUNT,[1],1406 x10E3/uL
same,ALANINE AMINOTRANSFERASE,[1],51.67 u/L
same,ALBUMIN,[1],4.47 G/DL
same,ALKALINE PHOSPHATASE,[1],440 u/L
same,ASPARTATE AMINOTRANSFERASE,[1],80 u/L
same,BLOOD UREA NITROGEN,[1],16.67 mg/dL
same,CARBON DIOXIDE,[1],20.33 mmol/L
same,CHLORIDE,[1],102.67 MEQ/L
same,CHOLESTEROL,[1],64.33 mg/dL
same,CREATINE PHOSPHOKINASE,[1],255.33 u/L
same,CREATININE,[1],0.17 mg/dL
same,GLUCOSE,[1],170.33 mg/dL
same,LACTATE DEHYDROGENASE,[1],112.33 u/L
same,LIPASE,[1],10 u/L
same,PHOSPHORUS,[1],12.37 mg/dL
same,POTASSIUM,[1],6.89 MEQ/L
same,SODIUM,[1],145.97 MEQ/L
same,TOTAL BILIRUBIN,[1],0.23 mg/dL
same,URIC ACID,[1],1.8 mg/dL
same,ABSOLUTE BASOPHIL,[2],0 CELLS/uL
same,ABSOLUTE EOSINOPHIL,[2],0 CELLS/uL
same,ABSOLUTE LYMPHOCYTE,[2],13788 CELLS/uL
same,ABSOLUTE MONOCYTE,[2],136.33 CELLS/uL
same,ABSOLUTE SEGMENTED NEUTROPHIL,[2],1109 CELLS/uL
same,BASOPHIL,[2],0%
same,EOSINOPHIL,[2],0%
same,ERYTHROCYTE COUNT,[2],5.51 x10E6/uL
same,HEMATOCRIT,[2],35.77%
same,HEMOGLOBIN,[2],13.13 G/DL
same,LEUKOCYTE COUNT,[2],15.03 x10E3/uL
same,LYMPHOCYTE,[2],91.33%
same,MEAN CORPUSCULAR HEMOGLOBIN,[2],23.9 pg
same,MEAN CORPUSCULAR HEMOGLOBIN CONCENTRATION,[2],36.73 G/DL
same,MEAN CORPUSCULAR VOLUME,[2],65 fL
same,MONOCYTE,[2],1%
same,NEUTROPHIL,[2],7.67%
same,NUCLEATED RED BLOOD CELLS,[2],0.67 /100WBC
same,PLATELET COUNT,[2],1392 x10E3/uL
same,ALANINE AMINOTRANSFERASE,[2],54.67 u/L
same,ALBUMIN,[2],4.3 G/DL
same,ALKALINE PHOSPHATASE,[2],373 u/L
same,ASPARTATE AMINOTRANSFERASE,[2],66.67 u/L
same,BLOOD UREA NITROGEN,[2],17.33 mg/dL
same,CARBON DIOXIDE,[2],20.33 mmol/L
same,CHLORIDE,[2],100.67 MEQ/L
same,CHOLESTEROL,[2],81.33 mg/dL
same,CREATINE PHOSPHOKINASE,[2],188.33 u/L
same,CREATININE,[2],0.22 mg/dL
same,GLUCOSE,[2],163.67 mg/dL
same,LACTATE DEHYDROGENASE,[2],78 u/L
same,LIPASE,[2],10.67 u/L
same,PHOSPHORUS,[2],10.77 mg/dL
same,POTASSIUM,[2],6.6 MEQ/L
same,SODIUM,[2],143.67 MEQ/L
same,TOTAL BILIRUBIN,[2],0.23 mg/dL
same,TOTAL PROTEIN,[2],6.03 G/DL
same,URIC ACID,[2],1.53 mg/dL
same,ABSOLUTE BASOPHIL,[3],0 CELLS/uL
same,ABSOLUTE EOSINOPHIL,[3],0 CELLS/uL
same,ABSOLUTE LYMPHOCYTE,[3],13982.67 CELLS/uL
same,ABSOLUTE MONOCYTE,[3],349.33 CELLS/uL
same,ABSOLUTE SEGMENTED NEUTROPHIL,[3],3068 CELLS/uL
same,BASOPHIL,[3],0%
same,EOSINOPHIL,[3],0%
same,ERYTHROCYTE COUNT,[3],5.76 x10E6/uL
same,HEMATOCRIT,[3],36.83%
same,HEMOGLOBIN,[3],13.87 G/DL
same,LEUKOCYTE COUNT,[3],17.4 x10E3/uL
same,LYMPHOCYTE,[3],81.33%
same,MEAN CORPUSCULAR HEMOGLOBIN,[3],24.1 pg
same,MEAN CORPUSCULAR HEMOGLOBIN CONCENTRATION,[3],37.67 G/DL
same,MEAN CORPUSCULAR VOLUME,[3],64.07 fL
same,MONOCYTE,[3],2%
same,NEUTROPHIL,[3],16.67%
same,NUCLEATED RED BLOOD CELLS,[3],0 /100WBC
same,PLATELET COUNT,[3],1344.67 x10E3/uL
same,ALANINE AMINOTRANSFERASE,[3],54.67 u/L
same,ALBUMIN,[3],4.33 G/DL
same,ALKALINE PHOSPHATASE,[3],353 u/L
same,ASPARTATE AMINOTRANSFERASE,[3],75.67 u/L
same,BLOOD UREA NITROGEN,[3],16.33 mg/dL
same,CARBON DIOXIDE,[3],29.33 mmol/L
same,CHLORIDE,[3],103.33 MEQ/L
same,CHOLESTEROL,[3],81 mg/dL
same,CREATINE PHOSPHOKINASE,[3],410.67 u/L
same,CREATININE,[3],0.19 mg/dL
same,GLUCOSE,[3],200.33 mg/dL
same,LACTATE DEHYDROGENASE,[3],220.67 u/L
same,LIPASE,[3],11 u/L
same,PHOSPHORUS,[3],11.43 mg/dL
same,POTASSIUM,[3],6.26 MEQ/L
same,SODIUM,[3],144.07 MEQ/L
same,TOTAL BILIRUBIN,[3],0.17 mg/dL
same,TOTAL PROTEIN,[3],6.43 G/DL
same,URIC ACID,[3],2.13 mg/dL
